pIC50: −log10 of the molar value. Calls of active or inactive are those of the source. The rule behind the calls is not given here.
Key:
[1] = tested on: A549; experiment: Inhibition of cell migration in human A549 cells at 0.625 to 2.5 uM incubated for 48 hrs by wound healing assay based phase contrast microscopy; format: functional; conditions: dose 0.625-2.5 µM, DDE = dose-dependent effect
[2] = tested on: A549; experiment: Induction of apoptosis in human A549 cells assessed as late apoptotic cells at 2.5 uM incubated for 48 hrs by Annexin V-FITC/propidium iodide staining based flow cytometric analysis; format: functional
[3] = tested on: A549; experiment: Induction of apoptosis in human A549 cells assessed as changes in cell morphology at 0.625 to 2.5 uM incubated for 48 hrs by phase contrast microscopy; format: functional, cell-based; conditions: dose 0.625-2.5 µM
[4] = tested on: A549; experiment: Anti-migration activity in human A549 cells assessed as distance travelled at 2.5 uM incubated for 48 hrs by wound healing assay based phase contrast microscopy; format: functional
[5] = tested on: A549; experiment: Induction of intracellular ROS generation in human A549 cells at 0.625 to 2.5 uM incubated for 48 hrs by […] fluorescence microscopic analysis; format: functional, cell-based; conditions: dose 0.625-2.5 µM, DDE = dose-dependent effect
[6] = tested on: A549; experiment: Inhibition of colony formation in human A549 cells assessed as decrease in colonies at 0.625 to 2.5 uM incubated for 7 days by crystal violet staining based assay; format: functional, cell-based; conditions: dose 0.625-2.5 µM, time 7.0 day, DDE = dose-dependent effect
[7] = tested on: A549; experiment: Anti-migration activity in human A549 cells assessed as distance travelled at 1.25 uM incubated for 48 hrs by wound healing assay based phase contrast microscopy; format: functional
[8] = molecular target: T1, DNA topoisomerase 1 (Homo sapiens, UniProt P11387); experiment: Inhibition of human DNA topoisomerase 1 assessed as reduction in pBR322 DNA relaxation incubated for 1 hrs measured by agarose gel electrophoresis method
T1 sequence (P11387 whole entry): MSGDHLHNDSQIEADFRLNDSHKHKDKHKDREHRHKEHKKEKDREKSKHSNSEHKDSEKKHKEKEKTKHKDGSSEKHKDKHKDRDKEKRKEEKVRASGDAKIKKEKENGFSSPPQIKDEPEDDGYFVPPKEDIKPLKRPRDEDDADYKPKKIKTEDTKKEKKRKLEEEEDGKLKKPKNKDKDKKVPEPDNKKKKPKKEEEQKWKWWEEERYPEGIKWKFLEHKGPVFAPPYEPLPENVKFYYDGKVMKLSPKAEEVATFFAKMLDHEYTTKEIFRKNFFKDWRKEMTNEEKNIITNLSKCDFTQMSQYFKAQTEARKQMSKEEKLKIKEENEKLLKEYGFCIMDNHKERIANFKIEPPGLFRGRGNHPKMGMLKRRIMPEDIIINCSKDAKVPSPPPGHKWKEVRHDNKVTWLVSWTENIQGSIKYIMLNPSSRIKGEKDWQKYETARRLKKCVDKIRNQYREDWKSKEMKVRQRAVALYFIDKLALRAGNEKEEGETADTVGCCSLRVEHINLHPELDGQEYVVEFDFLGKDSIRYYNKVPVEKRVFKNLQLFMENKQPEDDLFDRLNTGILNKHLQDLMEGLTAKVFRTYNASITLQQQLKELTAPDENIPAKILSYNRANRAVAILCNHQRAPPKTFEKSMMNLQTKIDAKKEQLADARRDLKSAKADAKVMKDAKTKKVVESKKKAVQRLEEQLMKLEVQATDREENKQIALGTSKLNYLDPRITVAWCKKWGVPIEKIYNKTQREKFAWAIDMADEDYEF

[9] = tested on: Calf thymus DNA; experiment: Binding affinity to calf thymus DNA assessed as increase in viscosity at 15 uM by ethidium bromide-Hoechst 33342 staining based analysis; format: nucleic-acid assay; conditions: Bos taurus
[10] = tested on: HCT-116; experiment: Cytotoxicity against human HCT-116 cells assessed as cell growth inhibition incubated for 48 hrs by MTT assay; format: functional, cell-based; conditions: HCT-116, 48 h
[11] = tested on: A549; experiment: Anti-migration activity in human A549 cells assessed as distance travelled at 1.25 uM by wound healing assay based phase contrast microscopy; format: functional
[12] = tested on: MCF7; experiment: Cytotoxicity against human MCF7 cells assessed as cell growth inhibition incubated for 48 hrs by MTT assay; format: functional, cell-based; conditions: MCF7, 48 h
[13] = tested on: A549; experiment: Anti-migration activity in human A549 cells assessed as distance travelled at 2.5 uM by wound healing assay based phase contrast microscopy; format: functional
[14] = tested on: A549; experiment: Induction of apoptosis in human A549 cells assessed as necrotic cells at 0.625 to 2.5 uM incubated for 48 hrs by Annexin V-FITC/propidium iodide staining based flow cytometric analysis; format: functional; conditions: dose 0.625-2.5 µM
[15] = tested on: A549; experiment: Induction of apoptosis in human A549 cells assessed as nuclear fragmentation at 0.625 to 2.5 uM incubated for 48 hrs by DAPI staining based fluorescence microscopic analysis; format: functional, cell-based; conditions: dose 0.625-2.5 µM
[16] = tested on: A549; experiment: Induction of apoptosis in human A549 cells assessed as cell shrinkage at 0.625 to 2.5 uM incubated for 48 hrs by phase contrast microscopy; format: functional, cell-based; conditions: dose 0.625-2.5 µM, DDE = dose-dependent effect
[17] = tested on: SK-MEL-28; experiment: Cytotoxicity against human SK-MEL-28 cells assessed as cell growth inhibition incubated for 48 hrs by MTT assay; format: functional, cell-based; conditions: SK-MEL-28, 48 h
[18] = molecular target: DNA topoisomerase 2-alpha (Homo sapiens) (UniProt P11388); experiment: Inhibition of DNA topoisomerase 2 (unknown origin) assessed as reduction in decatenation using kDNA as substrate incubated for 30 mins measured by agarose gel electrophoresis method
Sequence of DNA topoisomerase 2-alpha (Homo sapiens) (P11388 whole entry): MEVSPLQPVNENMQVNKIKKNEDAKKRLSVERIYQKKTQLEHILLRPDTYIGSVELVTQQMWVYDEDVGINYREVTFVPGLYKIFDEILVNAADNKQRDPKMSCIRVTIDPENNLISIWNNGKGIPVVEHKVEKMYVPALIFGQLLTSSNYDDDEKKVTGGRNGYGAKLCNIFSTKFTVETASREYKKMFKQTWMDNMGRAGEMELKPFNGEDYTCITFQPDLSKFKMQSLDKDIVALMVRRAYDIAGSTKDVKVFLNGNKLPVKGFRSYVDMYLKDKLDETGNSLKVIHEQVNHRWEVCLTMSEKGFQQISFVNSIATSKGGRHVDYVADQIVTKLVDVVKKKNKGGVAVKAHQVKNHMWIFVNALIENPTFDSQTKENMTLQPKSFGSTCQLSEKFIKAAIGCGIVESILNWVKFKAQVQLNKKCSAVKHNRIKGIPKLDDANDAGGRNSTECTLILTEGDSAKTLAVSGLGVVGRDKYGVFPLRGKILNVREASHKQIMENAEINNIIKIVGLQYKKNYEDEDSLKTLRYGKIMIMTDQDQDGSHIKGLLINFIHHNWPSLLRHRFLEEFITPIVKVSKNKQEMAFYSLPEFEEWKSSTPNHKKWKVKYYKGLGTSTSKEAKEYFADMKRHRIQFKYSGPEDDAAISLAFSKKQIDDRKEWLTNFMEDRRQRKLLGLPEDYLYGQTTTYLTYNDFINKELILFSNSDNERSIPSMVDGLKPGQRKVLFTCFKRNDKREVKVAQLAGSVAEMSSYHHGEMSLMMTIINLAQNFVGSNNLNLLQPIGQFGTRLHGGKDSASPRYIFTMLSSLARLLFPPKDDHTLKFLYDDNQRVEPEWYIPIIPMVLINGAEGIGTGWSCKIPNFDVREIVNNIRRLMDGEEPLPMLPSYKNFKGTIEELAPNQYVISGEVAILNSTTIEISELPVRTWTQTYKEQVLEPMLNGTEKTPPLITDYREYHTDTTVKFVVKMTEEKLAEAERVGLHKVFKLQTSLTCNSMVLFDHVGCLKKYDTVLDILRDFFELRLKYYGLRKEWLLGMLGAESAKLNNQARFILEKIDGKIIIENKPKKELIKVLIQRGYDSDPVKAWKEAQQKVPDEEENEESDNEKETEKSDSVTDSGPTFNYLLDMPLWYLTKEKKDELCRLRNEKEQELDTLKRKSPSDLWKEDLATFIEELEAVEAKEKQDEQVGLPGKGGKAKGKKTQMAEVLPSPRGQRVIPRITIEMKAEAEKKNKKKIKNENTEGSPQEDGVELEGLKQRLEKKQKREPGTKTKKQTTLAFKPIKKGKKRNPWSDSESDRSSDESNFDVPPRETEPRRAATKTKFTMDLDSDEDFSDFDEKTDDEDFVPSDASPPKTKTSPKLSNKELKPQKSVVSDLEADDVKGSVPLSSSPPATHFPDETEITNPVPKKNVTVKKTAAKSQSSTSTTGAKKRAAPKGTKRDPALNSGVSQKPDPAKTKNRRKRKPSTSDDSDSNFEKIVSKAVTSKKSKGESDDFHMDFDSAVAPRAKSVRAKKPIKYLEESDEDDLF

[19] = molecular target: T2, DNA topoisomerase 1 (Homo sapiens) (UniProt P11387); experiment: Inhibition of DNA topoisomerase 1 (unknown origin) assessed as reduction in pBR322 DNA relaxation at 10 uM incubated for 30 mins measured by agarose gel electrophoresis method relative to control
T2 sequence (whole entry): T1 sequence (P11387 whole entry)

[20] = tested on: A549; experiment: Induction of apoptosis in human A549 cells assessed as apoptotic body fragmentation at 0.625 to 2.5 uM incubated for 48 hrs by AO/EB staining based fluorescence microscopy; format: functional, cell-based; conditions: dose 0.625-2.5 µM, DDE = dose-dependent effect
[21] = tested on: A549; experiment: Induction of apoptosis in human A549 cells assessed as reduction on viable cells at 0.625 to 2.5 uM incubated for 48 hrs by phase contrast microscopy; format: functional, cell-based; conditions: dose 0.625-2.5 µM, DDE = dose-dependent effect
[22] = tested on: A549; experiment: Induction of apoptosis in human A549 cells assessed as cell membrane disruption at 0.625 to 2.5 uM incubated for 48 hrs by phase contrast microscopy; format: functional, cell-based; conditions: dose 0.625-2.5 µM, DDE = dose-dependent effect
[23] = tested on: A549; experiment: Anti-migration activity in human A549 cells assessed as distance travelled at 0.625 uM incubated for 48 hrs by wound healing assay based phase contrast microscopy; format: functional
[24] = tested on: A549; experiment: Induction of apoptosis in human A549 cells assessed as changes in nuclear morphology at 0.625 to 2.5 uM incubated for 48 hrs by DAPI staining based fluorescence microscopic analysis; format: functional, cell-based; conditions: dose 0.625-2.5 µM
[25] = tested on: A549; experiment: Anti-migration activity in human A549 cells assessed as distance travelled at 0.625 uM by wound healing assay based phase contrast microscopy; format: functional
[26] = tested on: Calf thymus DNA; experiment: Binding affinity to calf thymus DNA assessed as hyperchromicity at 10 to 20 uM by UV-Vis spectroscopic analysis; format: nucleic-acid assay; conditions: Bos taurus; dose 10-20 µM
[27] = Cytotoxicity against rat NRK cells assessed as cell growth inhibition incubated for 48 hrs by MTT assay; format: toxicity, cell-based
[28] = tested on: A549; experiment: Induction of apoptosis in human A549 cells assessed as necrotic cells at 0.625 uM incubated for 48 hrs by Annexin V-FITC/propidium iodide staining based flow cytometric analysis; format: functional
[29] = tested on: A549; experiment: Induction of apoptosis in human A549 cells assessed as late apoptotic cells at 0.625 to 1.25 uM incubated for 48 hrs by Annexin V-FITC/propidium iodide staining based flow cytometric analysis; format: functional, cell-based; conditions: dose 0.625-1.25 µM
[30] = tested on: A549; experiment: Induction of apoptosis in human A549 cells assessed as cell shrinkage at 0.625 to 2.5 uM incubated for 48 hrs by AO/EB staining based fluorescence microscopy; format: functional; conditions: dose 0.625-2.5 µM, DDE = dose-dependent effect
[31] = tested on: A549; experiment: Induction of apoptosis in human A549 cells assessed as necrotic cells at 2.5 uM incubated for 48 hrs by Annexin V-FITC/propidium iodide staining based flow cytometric analysis; format: functional
[32] = tested on: Calf thymus DNA; experiment: Binding affinity to calf thymus DNA assessed as hyperchromicity at 10 uM by circular dichroism spectroscopy; format: nucleic-acid assay; conditions: Bos taurus
[33] = tested on: A549; experiment: Induction of apoptosis in human A549 cells assessed as membrane blebbing at 0.625 to 2.5 uM incubated for 48 hrs by AO/EB staining based fluorescence microscopy; format: functional, cell-based; conditions: dose 0.625-2.5 µM, DDE = dose-dependent effect
[34] = tested on: A549; experiment: Cytotoxicity against human A549 cells assessed as cell growth inhibition incubated for 48 hrs by MTT assay; format: functional, cell-based; conditions: A549, 48 h
[35] = tested on: A549; experiment: Induction of apoptosis in human A549 cells assessed as chromatin condensation at 0.625 to 2.5 uM incubated for 48 hrs by DAPI staining based fluorescence microscopic analysis; format: functional, cell-based; conditions: dose 0.625-2.5 µM
[36] = tested on: HT-29; experiment: Cytotoxicity against human HT-29 cells assessed as cell growth inhibition incubated for 48 hrs by MTT assay; format: functional, cell-based; conditions: HT-29, 48 h
[37] = tested on: A549; experiment: Induction of apoptosis in human A549 cells assessed as chromatin condensation at 0.625 to 2.5 uM incubated for 48 hrs by AO/EB staining based fluorescence microscopy; format: functional, cell-based; conditions: dose 0.625-2.5 µM, DDE = dose-dependent effect

- pIC50 [8]: 4.32
- Activity [9]: Active
- inhibition [18]: Active
- inhibition [19]: 28%
- Activity [26]: Active
- Activity [32]: Active
SMILES: Cc1ccc(C/N=C2\NC(=O)/C(=C3\CCNC(=O)c4[nH]c5ccccc5c43)S2)cc1
- inhibition [1]: Dde
- Activity [2]: 3.09%
- Activity [3]: Active
- Activity [4]: 445.52 um
- Activity [5]: Dde
- inhibition [6]: Dde
- Activity [7]: 293.25 um
- pIC50 [10]: 5.18
- Activity [11]: 391.93 um
- pIC50 [12]: 5.10
- Activity [13]: 363.56 um
- Activity [14]: 2.97%
- Activity [15]: Active
- Activity [16]: Dde
- pIC50 [17]: 5.52
- Activity [20]: Dde
- Activity [21]: Dde
- Activity [22]: Dde
- Activity [23]: 259.59 um
- Activity [24]: Active
- Activity [25]: 298.42 um
- IC50 at 48 h [27]: 53.2 µM
- Activity [28]: 4.8%
- Activity [29]: Active
- Activity [30]: Dde
- Activity [31]: 5.96%
- Activity [33]: Dde
- pIC50 [34]: 5.91
- Activity [35]: Active
- pIC50 [36]: 4.96
- Activity [37]: Dde

Source: ChEMBL document CHEMBL5137032, “Design, synthesis of DNA-interactive 4-thiazolidinone-based indolo-/pyrroloazepinone conjugates as potential cytotoxic and topoisomerase I inhibitors” (Eur J Med Chem, 2022)
